Values after ≈ are worked out from the molar mass of the structure shown.
Conditions: not given

Structure (SMILES) | logP | solubility [mM]
O=C1CC2C(=O)NCC2CN1 (centres undefined) | -2.11 | 
c1ccc2c(c1)-c1cccc3c1c-2cc1ccccc13 | 5.78 | 
CC(=O)OCN1C(=O)C2CC=CCC2C1=O (centres undefined) | 0.97 | 
NC(=S)NN=Cc1ccc([N+](=O)[O-])o1 | 1.64 | 
O=C(OCn1ncc2c(=O)[nH]cnc21)c1cccnc1 | 0.27 | 
Nc1ccc2[nH]ncc2c1 | 0.65 | 
CCOP(=S)(OCC)Oc1cc(C)nc(C(C)C)n1 |  | 0.131 (≈ 0.04 mg/mL)
CCCOC(=O)NCCCN(C)C | 1.12 | 
NC(=O)CCCN=C(c1ccc(Cl)cc1)c1cc(F)ccc1O | 3.06 | 
NS(=O)(=O)c1nn2c(=Nc3ccc(Cl)cc3)snc2s1 | 3.63 | 
CCNc1nc(NC(C)(C)C)nc(OC)n1 | 3.1 | 
CCCCCCNC(=S)NC | 2.31 | 
O=C(Nc1ccc(Cl)cc1)c1cc([N+](=O)[O-])ccc1O | 2.54 | 
Cc1ccc(CN)cc1 | 1.46 | 
Brc1ccccc1-c1ccccc1 | 4.59 | 
Nc1cccc2cccc(N)c12 | 1.78 | 
N#CC(C#N)=Cc1ccc(Cl)o1 | 2.17 | 
O=C(O)c1ccccc1S(=O)(=O)O |  | 2470 (≈ 500 mg/mL)
O=C(O)c1ccccc1Nc1cccc(Cl)c1 | 5.43 | 
COc1ccc(Cn2cncn2)cc1 | 1.1 | 
Cc1nc(NCCCO)c(C#N)cc1-c1ccccc1 | 2.72 | 
Cc1cc(Cl)c(Cc2cc(Cl)ccc2Cl)cc1Cl | 7.48 | 
CCCN(CCC)C1COc2c(O)cccc2C1 (centres undefined) | 3.3 | 

Structure (SMILES) | logP | solubility [mM]
O=c1[nH]c(=O)c2[nH]c(=O)[nH]c2[nH]1 | -2.17 | 
COCc1ccc(COC)cc1 | 1.28 | 
Cc1ccc2oc(-c3ccccc3C(=O)O)c(Br)c2c1 | 5.19 | 
Cc1cccc(Nc2ccccc2C(=O)O)c1 | 4.88 | 
NC(=O)C=Cc1ccc([N+](=O)[O-])o1 | 0.65 | 
CN1C(=O)CC(=O)N(c2ccccc2)c2cc(Cl)ccc21 | 2.12 | 
C#CCN1C(=O)COc2cc(F)c(N3C(=O)C4=C(CCCC4)C3=O)cc21 | 2.55 | 
ClC=C1C2C(Cl)C(Cl)C(C2Cl)C1(CCl)CCl (centres undefined) | 5.35 | 
CCCCN(CCOC(C)=O)c1ccc(N=Nc2c(C#N)cc([N+](=O)[O-])cc2C#N)c(C)c1 | 5.5 | 1.32e-06 (≈ 5.9e-07 mg/mL)
CN(C)C(=O)COC(=O)c1ccccc1O | 1.21 | 
CCCCC(OC(Cc1ccccc1)C(=O)N1CCC(OCOC)CC1)C(=O)NC(CC1CCCCC1)C(O)CC(C(=O)NCCCNC(C)=O)C(C)C (centres undefined) | 4.3 | 
COC1=C(OC)C(=O)C(OC)=C(OC)C1=O | 0.41 | 
CCC1(C)CC(=O)NC1=O (centres undefined) | 0.38 | 
CN1CCN(Cc2cccc(COc3ccccc3)c2)CC1 | 3.05 | 
CCCNC1=NC(=O)C(=Cc2ccc([N+](=O)[O-])o2)S1 | 1.24 | 
ClC=C1C2CC(C(Cl)C2(Cl)Cl)C1(C(Cl)Cl)C(Cl)Cl (centres undefined) | 5.49 | 
CCCCC(OC(Cc1ccccc1)C(=O)N1CCC(OCOC)CC1)C(=O)NC(CC1CCCCC1)C(O)CC(C(=O)NCCCNc1n[nH]c(N)n1)C(C)C (centres undefined) | 4.3 | 
CCCNC(=O)CCC(NS(=O)(=O)c1ccc(C)cc1)C(=O)O (centres undefined) | 0.02 | 
CC(O)COC(=O)[C@@H](N)Cc1ccc(O)c(O)c1 (some centres undefined) | -0.49 | 
CCCCc1ccc(N)cc1 | 3.05 | 
O=c1c(Cl)c(Cl)cnn1-c1ccccc1 | 2.09 | 
COP(=S)(OC)Oc1ccccc1 | 3.03 | 

Same assay, conditions: 20 °C

Structure (SMILES) | solubility [mM]
CC1CCC(O)CC1 (centres undefined) | 131 (≈ 15 mg/mL)
CCSCC | 34.7 (≈ 3.13 mg/mL)
CNC(=N)N | 24.4 (≈ 1.78 mg/mL)
CS(=O)(=O)F | 306 (≈ 30 mg/mL)
COCCO[Si](CCCl)(OCCOC)OCCOC | 78.9 (≈ 25 mg/mL)
O=c1c(Cl)c(Cl)cnn1-c1ccccc1 | 0.415 (≈ 0.1 mg/mL)

Same assay, conditions: 23.0 °C

Structure (SMILES) | log10 OH rate constant (cm³/molecule/s)
c1ccc2c(c1)OCCO2 | -10.6
CCC/C=C/C=O | -10.4

Same assay, conditions: 24 °C

Structure (SMILES) | solubility [mM]
O=NN1CCCCCC1 | 99.9 (≈ 12.8 mg/mL)

Same assay, conditions: 25 °C

Structure (SMILES) | solubility [mM]
Clc1ccc(/N=N/c2ccccc2)cc1 | 0.00198 (≈ 0.00043 mg/mL)
Cc1c2ccccc2c(C)c2c1ccc1ccccc12 | 0.000152 (≈ 3.9e-05 mg/mL)
ClCC(Cl)CCl | 11.9 (≈ 1.75 mg/mL)
BrC1CCCCC1 | 5.08 (≈ 0.828 mg/mL)
O=Nc1ccc2ccccc2c1O | 2.89 (≈ 0.5 mg/mL)
C#CCN1C(=O)COc2cc(F)c(N3C(=O)C4=C(CCCC4)C3=O)cc21 | 0.00505 (≈ 0.00179 mg/mL)
O=C(O)C(Br)Br | 9690 (≈ 2110 mg/mL)
CC(=O)N(C)N=O | 170 (≈ 17.4 mg/mL)
FC(F)(Cl)Cl | 2.32 (≈ 0.28 mg/mL)
C=Cc1cccc(C)c1 | 0.753 (≈ 0.089 mg/mL)
OCCNc1ccccc1 | 335 (≈ 46 mg/mL)

Same assay, conditions: 25.0 °C

Structure (SMILES) | log10 OH rate constant (cm³/molecule/s)
C=C(C)C(=O)OC | -10.6
CC(C)Cl | -12
CCCCCC(C)=O | -10.9
CC(=O)C(C)C | -11.5

Same assay, conditions: 26 °C

Structure (SMILES) | solubility [mM]
Clc1cc2oc3cc(Cl)c(Cl)cc3c2cc1Cl | 2.26e-06 (≈ 6.92e-07 mg/mL)

Same assay, conditions: 27.0 °C

Structure (SMILES) | log10 OH rate constant (cm³/molecule/s)
CCc1ccco1 | -9.97

Same assay, conditions: 30 °C

Structure (SMILES) | solubility [mM]
Nc1ccc([N+](=O)[O-])cc1 | 5.27 (≈ 0.728 mg/mL)
CCOC(=O)CCl | 158 (≈ 19.4 mg/mL)
